Reference: patent US11084829B2, “Ubiquitin-specific-processing protease 7 (USP7) modulators and uses thereof” (RAPT THERAPEUTICS, INC., priority 2018, dated 2021)

Biological target: USP7 (Homo sapiens, UniProt Q93009)
Experiment: USP7 inhibitory potency (IC50)
Type: biochemical
Method: Activity for compounds described herein is provided in Table 2, wherein potency levels are provided as follows: (Potency: USP7 IC50: A<0.01 μM; B=0.01-0.1 μM; C=>0.1 μM.

Sequence of USP7 (Q93009 whole entry): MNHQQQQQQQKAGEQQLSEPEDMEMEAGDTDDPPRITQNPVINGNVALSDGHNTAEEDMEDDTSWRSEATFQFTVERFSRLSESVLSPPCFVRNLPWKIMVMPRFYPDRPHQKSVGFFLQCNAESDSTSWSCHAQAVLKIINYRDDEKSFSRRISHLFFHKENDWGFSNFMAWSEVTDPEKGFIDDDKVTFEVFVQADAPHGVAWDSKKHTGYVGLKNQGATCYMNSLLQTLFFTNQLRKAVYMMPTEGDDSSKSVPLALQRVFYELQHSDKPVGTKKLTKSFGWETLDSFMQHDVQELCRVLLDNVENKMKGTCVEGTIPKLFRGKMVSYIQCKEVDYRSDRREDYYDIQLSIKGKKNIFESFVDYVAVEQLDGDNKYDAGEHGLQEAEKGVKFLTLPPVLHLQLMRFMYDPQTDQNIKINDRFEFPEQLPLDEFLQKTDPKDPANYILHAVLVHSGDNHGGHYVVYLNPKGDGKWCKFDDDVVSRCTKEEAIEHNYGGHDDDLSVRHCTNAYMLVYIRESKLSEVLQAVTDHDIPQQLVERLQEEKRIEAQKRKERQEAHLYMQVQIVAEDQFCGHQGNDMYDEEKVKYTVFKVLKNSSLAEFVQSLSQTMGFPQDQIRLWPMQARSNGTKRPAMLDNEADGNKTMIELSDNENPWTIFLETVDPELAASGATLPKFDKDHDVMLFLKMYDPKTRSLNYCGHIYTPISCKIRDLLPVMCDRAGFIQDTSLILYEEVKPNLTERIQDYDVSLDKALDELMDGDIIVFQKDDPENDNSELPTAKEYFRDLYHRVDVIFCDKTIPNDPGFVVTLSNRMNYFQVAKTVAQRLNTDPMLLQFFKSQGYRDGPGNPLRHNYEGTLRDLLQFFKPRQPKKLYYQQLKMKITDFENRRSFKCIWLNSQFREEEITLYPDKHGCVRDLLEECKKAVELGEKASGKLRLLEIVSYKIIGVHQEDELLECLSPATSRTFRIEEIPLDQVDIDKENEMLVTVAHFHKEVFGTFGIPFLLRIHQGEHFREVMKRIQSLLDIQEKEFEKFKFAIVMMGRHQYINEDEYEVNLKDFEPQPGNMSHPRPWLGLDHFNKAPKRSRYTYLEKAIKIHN

| Compound | IC50 [nM] |
| --- | --- |
| CC1(C)CNCC(Cc2c(Cl)cc(Cl)cc2-c2ncnc3cc(Cn4cnccc4=O)sc23)O1 (stereo not shown) [Example 251, 3-((4-(3,5-dichloro-2-((6,6-dimethylmorpholin-2-yl)methyl)phenyl)thieno[3,2-d]pyrimidin-6-yl)methyl)pyrimidin-4(3H)-one] | > 100 |
| Cn1ccc(=O)n(Cc2cc3ncnc(-c4cc(Cl)cc(Cl)c4CC4CNCC(C)(C)O4)c3s2)c1=O (stereo not shown) [Example 252, 3-((4-(3,5-dichloro-2-((6,6-dimethylmorpholin-2-yl)methyl)phenyl)thieno[3,2-d]pyrimidin-6-yl)methyl)-1-methylpyrimidine-2,4(1H,3H)-dione] | < 10 |
| CN1CC(=O)N(Cc2cc3ncnc(-c4cc(Cl)cc(Cl)c4CC4CNCC(C)(C)O4)c3s2)C1=O (stereo not shown) [Example 253, 3-((4-(3,5-dichloro-2-((6,6-dimethylmorpholin-2-yl)methyl)phenyl)thieno[3,2-d]pyrimidin-6-yl)methyl)-1-methylimidazolidine-2,4-dione] | < 10 |
| Cc1cc(Cl)cc(-c2ccnc3cc(Cn4c(=O)ccn(CC(F)(F)F)c4=O)sc23)c1CN1CCNCCC1=O [Example 255, 3-((7-(5-chloro-3-methyl-2-((7-oxo-1,4-diazepan-1-yl)methyl)phenyl)thieno[3,2-b]pyridin-2-yl)methyl)-1-(2,2,2-trifluoroethyl)pyrimidine-2,4(1H,3H)-dione] | 10 to 100 |
| Cc1cc(Cl)cc(-c2ccnc3cc(Cn4c(=O)ccn(CC(F)(F)F)c4=O)sc23)c1CN1CCCNCC1=O [Example 256, 3-((7-(5-chloro-3-methyl-2-((2-oxo-1,4-diazepan-1-yl)methyl)phenyl)thieno[3,2-b]pyridin-2-yl)methyl)-1-(2,2,2-trifluoroethyl)pyrimidine-2,4(1H,3H)-dione] | 10 to 100 |
| Cc1cc(Cl)cc(-c2ncnc3cc(CN4C(=O)CCN(CCF)C4=O)sc23)c1C[C@@H]1CNCC(C)(C)O1 [Example 257, 3-[[4-[5-chloro-2-[[(2R)-6,6-dimethylmorpholin-2-yl]methyl]-3-methyl-phenyl]thieno[3,2-d]pyrimidin-6-yl]methyl]-1-(2-fluoroethyl)hexahydropyrimidine-2,4-dione] | < 10 |
| Cc1cc(Cl)cc(-c2ncnc3cc(CN4C(=O)CCN(CCF)C4=O)sc23)c1CN1[C@@H](C)CNC[C@@H]1C [Example 258, 3-((4-(5-chloro-2-(((2S,6S)-2,6-dimethylpiperazin-1-yl)methyl)-3-methylphenyl)thieno[3,2-d]pyrimidin-6-yl)methyl)-1-(2-fluoroethyl)dihydropyrimidine-2,4(1H,3H)-dione] | < 10 |
| Cc1cc(Cl)cc(-c2ncnc3cc(CN4C(=O)CCN(CC(F)F)C4=O)sc23)c1CN1[C@@H](C)CNC[C@@H]1C [Example 259, 3-((4-(5-chloro-2-(((2S,6S)-2,6-dimethylpiperazin-1-yl)methyl)-3-methylphenyl)thieno[3,2-d]pyrimidin-6-yl)methyl)-1-(2,2-difluoroethyl)dihydropyrimidine-2,4(1H,3H)-dione] | < 10 |
| Cc1cc(Cl)cc(-c2ncnc3cc(CN4C(=O)CCN(CC(F)(F)F)C4=O)sc23)c1CN1[C@@H](C)CNC[C@@H]1C [Example 260, 3-((4-(5-chloro-2-(((2S,6S)-2,6-dimethylpiperazin-1-yl)methyl)-3-methylphenyl)thieno[3,2-d]pyrimidin-6-yl)methyl)-1-(2,2,2-trifluoroethyl)dihydropyrimidine-2,4(1H,3H)-dione] | < 10 |
| Cc1cc(Cl)cc(-c2ncnc3cc(CN4C(=O)CN(CC(=O)O)C4=O)sc23)c1C[C@@H]1CNCCO1 [Example 261, (R)-2-(3-((4-(5-chloro-3-methyl-2-(morpholin-2-ylmethyl)phenyl)thieno[3,2-d]pyrimidin-6-yl)methyl)-2,4-dioxoimidazolidin-1-yl)acetic acid] | 10 to 100 |
| Cc1cc(Cl)cc(-c2ncnc3cc(Cn4c(C#N)cccc4=O)sc23)c1C[C@@H]1CNCC(C)(C)O1 [Example 262, (R)-1-((4-(5-chloro-2-((6,6-dimethylmorpholin-2-yl)methyl)-3-methylphenyl)thieno[3,2-d]pyrimidin-6-yl)methyl)-6-oxo-1,6-dihydropyridine-2-carbonitrile] | > 100 |
| Cc1cc(Cl)cc(-c2ncnc3cc(CN4C(=O)OC[C@@H]4CF)sc23)c1C[C@@H]1CNCC(C)(C)O1 [Example 263, (R)-3-((4-(5-chloro-2-(((R)-6,6-dimethylmorpholin-2-yl)methyl)-3-methylphenyl)thieno[3,2-d]pyrimidin-6-yl)methyl)-4-(fluoromethyl)oxazolidin-2-one] | < 10 |
| Cc1cc(Cl)cc(-c2ncnc3cc(CN4C(=O)CN(CCCC(=O)O)C4=O)sc23)c1C[C@@H]1CNCCO1 [Example 264, (R)-4-(3-((4-(5-chloro-3-methyl-2-(morpholin-2-ylmethyl)phenyl)thieno[3,2-d]pyrimidin-6-yl)methyl)-2,4-dioxoimidazolidin-1-yl)butanoic acid] | 10 to 100 |
| Cc1cc(Cl)cc(-c2ncnc3cc(CN4C(=O)CCN(CCCC(=O)O)C4=O)sc23)c1C[C@@H]1CNCCO1 [Example 265, (R)-4-(3-((4-(5-chloro-3-methyl-2-(morpholin-2-ylmethyl)phenyl)thieno[3,2-d]pyrimidin-6-yl)methyl)-2,4-dioxotetrahydropyrimidin-1(2H)-yl)butanoic acid] | 10 to 100 |
| Cc1cc(Cl)cc(-c2ncnc3cc(Cn4c(=O)cc[nH]c4=O)sc23)c1C[C@@H]1CNCC(C)(C)O1 [Example 266, (R)-3-((4-(5-chloro-2-((6,6-dimethylmorpholin-2-yl)methyl)-3-methylphenyl)thieno[3,2-d]pyrimidin-6-yl)methyl)pyrimidine-2,4(1H,3H)-dione] | 10 to 100 |
| Cc1cc(Cl)cc(-c2ncnc3cc(Cn4ccc(=O)[nH]c4=O)sc23)c1C[C@@H]1CNCC(C)(C)O1 [Example 267, (R)-1-((4-(5-chloro-2-((6,6-dimethylmorpholin-2-yl)methyl)-3-methylphenyl)thieno[3,2-d]pyrimidin-6-yl)methyl)pyrimidine-2,4(1H,3H)-dione] | < 10 |
| Cc1cc(Cl)cc(-c2ncnc3cc(CN4C(=O)OC[C@@H]4CO)sc23)c1C[C@@H]1CNCC(C)(C)O1 [Example 268, (S)-3-((4-(5-chloro-2-(((R)-6,6-dimethylmorpholin-2-yl)methyl)-3-methylphenyl)thieno[3,2-d]pyrimidin-6-yl)methyl)-4-(hydroxymethyl)oxazolidin-2-one] | < 10 |
| COCc1cc2ncnc(-c3cc(Cl)cc(C)c3C[C@@H]3CNCC(C)(C)O3)c2s1 [Example 269, (R)-6-(4-chloro-2-(6-(methoxymethyl)thieno[3,2-d]pyrimidin-4-yl)-6-methylbenzyl)-2,2-dimethylmorpholine] | > 100 |
| Cc1cc(Cl)cc(-c2ncnc3cc(CN4C(=O)CCNC4=O)sc23)c1C[C@@H]1CNCC(C)(C)O1 [Example 270, (R)-3-((4-(5-chloro-2-((6,6-dimethylmorpholin-2-yl)methyl)-3-methylphenyl)thieno[3,2-d]pyrimidin-6-yl)methyl)dihydropyrimidine-2,4(1H,3H)-dione] | < 10 |
| Cc1cc(Cl)cc(-c2ncnc3cc(CN4C(=O)CCN(CCO)C4=O)sc23)c1C[C@@H]1CNCC(C)(C)O1 [Example 271, (R)-3-((4-(5-chloro-2-((6,6-dimethylmorpholin-2-yl)methyl)-3-methylphenyl)thieno[3,2-d]pyrimidin-6-yl)methyl)-1-(2-hydroxyethyl)dihydropyrimidine-2,4(1H,3H)-dione] | < 10 |
| Cc1cc(Cl)cc(-c2ncnc3cc(CN4C(=O)CN(CC(F)(F)F)C4=O)sc23)c1CN1[C@@H](C)CNC[C@@H]1C [Example 272, 3-((4-(5-chloro-2-(((2S,6S)-2,6-dimethylpiperazin-1-yl)methyl)-3-methylphenyl)thieno[3,2-d]pyrimidin-6-yl)methyl)-1-(2,2,2-trifluoroethyl)imidazolidine-2,4-dione] | < 10 |
| Cc1cc(Cl)cc(-c2ncnc3cc(CN4C(=O)CNC4=O)sc23)c1C[C@@H]1CNCC(C)(C)O1 [Example 273, (R)-3-((4-(5-chloro-2-((6,6-dimethylmorpholin-2-yl)methyl)-3-methylphenyl)thieno[3,2-d]pyrimidin-6-yl)methyl)imidazolidine-2,4-dione] | < 10 |
| Cc1cc(Cl)cc(-c2ncnc3cc(CN4C(=O)CN(C)C4=O)sc23)c1C[C@@H]1CNCC(C)(C)O1 [Example 275, (R)-3-((4-(5-chloro-2-((6,6-dimethylmorpholin-2-yl)methyl)-3-methylphenyl)thieno[3,2-d]pyrimidin-6-yl)methyl)-1-methylimidazolidine-2,4-dione] | < 10 |
| Cc1cc(Cl)cc(-c2ncnc3cc(CN4C(=O)CN(CCO)C4=O)sc23)c1C[C@@H]1CNCC(C)(C)O1 [Example 276, (R)-3-((4-(5-chloro-2-((6,6-dimethylmorpholin-2-yl)methyl)-3-methylphenyl)thieno[3,2-d]pyrimidin-6-yl)methyl)-1-(2-hydroxyethyl)imidazolidine-2,4-dione] | < 10 |
| Cc1cc(Cl)cc(-c2ncnc3cc(CN4C(=O)CN(CC(F)F)C4=O)sc23)c1CN1[C@@H](C)CNC[C@@H]1C [Example 277, 3-((4-(5-chloro-2-(((2S,6S)-2,6-dimethylpiperazin-1-yl)methyl)-3-methylphenyl)thieno[3,2-d]pyrimidin-6-yl)methyl)-1-(2,2-difluoroethyl)imidazolidine-2,4-dione] | < 10 |
